Assay results as given in US9844521B2, “Pharmaceutical composition comprising ginger extract or shogaol” (UNIVERSITY-INDUSTRY COOPERATION GROUP OF KYUNG HEE …, priority 2008, dated 2017).

Legend:
C6 cells = test: Nerve growth factor secretion induction in C6 cells (NGF measurement kit); type: cell-based, mouse; conditions: conditioned media of C6 cells, mean±standard deviation
Experimental: This test was performed using a glioma C6 cell line of […] which is known as a cell line that secretes a nerve growth factor (NGF), and a pheochromocytoma PC12 cell line of […] which is known as a cell line that grows neurite with respect to an NGF in a similar way as a neuron. C6 cells and PC12 cells were obtained from Korean Cell Line Bank (KCLB Nos. 10107 and 21721, respectively). C6 cells were cultured using DMEM media (Gibco BRL, USA) supplemented with 3.4 g/L of sodium bicarbonate (NaHCO3), 10% fetal bovine serum, and 1% penicillin-streptomycin antibiotics (10000 U/ml), and PC12 cells were cultured using RPMI1640 medium (Gibco BRL, USA) supplemented with 2.0 g/L of sodium bicarbonate, 10% horse serum, 5% fetal bovine serum, and 1% penicillin-streptomycin antibiotics (10000 U/ml). The fetal bovine serum and the horse serum were inactivated at a temperature of 55[…] for 30 minutes before use, and all of the cells were cultured in a cell culture vessel with a humidity of 70% at a temperature of 37[…] to which 5% carbon dioxide was supplied. Regarding the PC12 cells, the cells were cultured in a culture vessel that was surface-coated with poly-D-lysine (Sigma) diluted with 50 μg/ml of a PBS buffer solution (pH 7.2) for 1 hour and then washed three times with a PBS buffer solution. Shogaol used was obtained from WAKO Company (Japan).
C6 cells attached to a 100 mm culture vessel were separated from the culture vessel by using 0.25% Trypsin-EDTA (Gibco BRL, USA), and then 10 ml of fresh medium was added to the cells to prepare a cell suspension. Then, the number of viable cells was counted and calculated by using a cell number counter. The cells were divided based on the counted cell number such that 2×10^6 cells were contained in a 100 mm culture dish. After 24 hours of cultivation, the used media was removed and replaced with 10 ml of a DMEM medium containing 2% fetal bovine serum, to which 100 ug/ml of each of the ethanol extract, the n-hexane fraction, the ethyl acetate fraction, the n-butanol fraction, and the water fraction prepared according to Example 1 was added. After 24 hours of cultivation, the respective media were obtained. The obtained media were centrifuged at a rate of 1500 rpm for 10 minutes and then a supernatant was collected, and these media (conditioned media) were used to treat PC12 cells.
The C6 cells were divided and treated with 0.1, 1, 5, 10, and 20 μM of shogaol in the same manner as in Experimental Example 1-1 to prepare conditioned media.
A nerve growth factor secreted from C6 cells by shogaol was quantified by treating a nerve growth factor measurement kit (DY556, R&D system, USA) with the conditioned media. In order to identify an effect of shogaol on nerve growth factor secretion induction, a nerve growth factor in the conditioned media prepared by culturing C6 cells after the cells were treated with shogaol was quantified and the results are shown in FIG. 2.

[1] = test system: salmonella typhimurium strains (TA 100, TA 1535, TA 98, and TA 1537); test: Back mutation test (genotoxicity in bacteria), Salmonella strains; conditions: TA 100, TA 1535, TA 98, TA 1537; compared with negative control
Experimental: In order to evaluate genotoxicity in bacteria, a back mutation test was performed using histidine-requiring salmonella typhimurium strains (TA 100, TA 1535, TA 98, and TA 1537) and an E. coli strain (E. coli WP2 uvrA). As a result, a positive control has a substantially greater colony number than a negative control. […] Accordingly, it was confirmed that the ginger extract and shogaol all had stability in the genotoxicity test.

PC12 cells = test: Neurite outgrowth of PC12 cells treated with conditioned media of C6 cells; type: cell-based, mouse; conditions: 20 μM in C6 conditioned media, microscope, fourth day after treatment
Experimental: This test was performed using a glioma C6 cell line of […] which is known as a cell line that secretes a nerve growth factor (NGF), and a pheochromocytoma PC12 cell line of […] which is known as a cell line that grows neurite with respect to an NGF in a similar way as a neuron. C6 cells and PC12 cells were obtained from Korean Cell Line Bank (KCLB Nos. 10107 and 21721, respectively). C6 cells were cultured using DMEM media (Gibco BRL, USA) supplemented with 3.4 g/L of sodium bicarbonate (NaHCO3), 10% fetal bovine serum, and 1% penicillin-streptomycin antibiotics (10000 U/ml), and PC12 cells were cultured using RPMI1640 medium (Gibco BRL, USA) supplemented with 2.0 g/L of sodium bicarbonate, 10% horse serum, 5% fetal bovine serum, and 1% penicillin-streptomycin antibiotics (10000 U/ml). […]
C6 cells attached to a 100 mm culture vessel were separated from the culture vessel by using 0.25% Trypsin-EDTA (Gibco BRL, USA), and then 10 ml of fresh medium was added to the cells to prepare a cell suspension. Then, the number of viable cells was counted and calculated by using a cell number counter. The cells were divided based on the counted cell number such that 2×10^6 cells were contained in a 100 mm culture dish. […]

ICR mice = test: Passive avoidance task (cognitive ability enhancement); type: in vivo, mouse; conditions: 5 mg/kg oral once per day for 3 days; control 165.50±23.39 seconds; p<0.05
Experimental: Male ICR mice having a weight of 25-28 g were obtained and nurtured in an animal laboratory at Kyunghee University Graduate School of East-West Medicine Science for 7 days for adaptation. Water and feed were freely supplied, and the temperature (22±2[…]), humidity (53±3%), and a cycle of brightness and darkness (12 hours) were automatically controlled. Shogaol used was obtained from WAKO Company (Japan).
Mice were divided into two groups, each of which consisted of 10 mice. A first group (control) was orally administered with 10% dimethyl sulfoxide in an amount of 5 ml per mouse weight kg for 3 days, and a second group was orally administered with 5 mg/kg of shogaol dissolved in 10% dimethyl sulfoxide for 3 days. […]
In a test device having an inner structure divided into two identical spaces with a door therebetween, on a first day, one space was bright and the other space was dark, and a test animal was allowed to stay in the bright space for 10 seconds and then the door was opened, and when the test animal moved toward the dark space, 0.25 mA of an electrical stimulation was applied to the feet of the test animal. After 24 hours, the same passive avoidance task was performed and a time during which the test animal stayed in the light space was measured. […]

Which “secretion amount of a nerve growth factor” value (“secretion amount” below) (C6 cells; 0.1 μM) does the source give for `CCCCC/C=C/C(=O)CCc1ccc(O)c(OC)c1` [shogaol, (E)-1-(4-hydroxy-3-methoxyphenyl)dec-4-en-3-one] here?
Its value is 105.46±7.27 % of a control.

What about the “secretion amount” value (C6 cells; 1 μM) of the same compound?
Its value is 112.72±3.67 % of a control.

And the “secretion amount” value (C6 cells; 5 μM)?
The value was 112.97±4.97 % of a control.

What about the “secretion amount” value (C6 cells; 10 μM) of the same compound?
The value was 119.44±5.18 % of a control.

What about the “secretion amount” value (C6 cells; 20 μM) of the same compound?
Its value is 124.81±5.61 % of a control.

And the “colony number (back mutation)” value [1]?
The value was “the colony number was not increased”.

And the “growth of neurite of the PC12 cells” value (PC12 cells)?
The value was “increased”.

And the latency time (ICR mice)?
Its latency time is 240.63 ± 24.14 s.
